Common to all, as to assay type: cell-based
The test system of assay [1] is pMek levels in CIAR-293 cells. Put plainly: pMek levels in CIAR-293 cells treated with A115 or DMSO. To be noted: A115 1 h.
For assay [2], the system named is pErk levels in Mia PaCa-2 cells. Put plainly: Raf inhibitor and Mek inhibitor cotreatments, pErk, Mia PaCa-2 cells.
Assay [3] deals with pMek levels in mutant KRas-expressing lines. Put plainly: pMek levels in mutant KRas-expressing cell lines treated with Mek inhibitors. To be noted: multiple mutant KRas-expressing lines, 4 h.
In assay [4] the target is high-affinity Raf:Mek interactions (Homo sapiens, UniProt Q02750). Kind of assay: Co-immunoprecipitation of Raf with Mek from Mia PaCa-2 cells treated with partial inhibitory doses of Mek inhibitors. To be noted: 4 h.
The test system of assay [5] is pErk levels in HCT-116 (G13D KRas/WT Raf) cells. Put plainly: LXH-254 titration, pErk western blot, HCT-116 cells. For orientation: In western blotting, separated proteins are transferred to a membrane and probed.
In assay [6] the test system is pErk levels in MDA-MB-231 cells. Put plainly: LXH-254 titration, pErk western blot, MDA-MB-231 cells. The settings on record: 4 h LXH-254 treatment.
In assay [7] the test system is pErk levels in MDA-MB-453 cells. Kind of assay: LXH-254 titration, pErk western blot, MDA-MB-453 cells. The settings on record: 4 h LXH-254 treatment.
Assay [8] relates to pErk levels in Mia PaCa-2 cells. Put plainly: LXH-254 titration, pErk western blot, Mia PaCa-2 cells. The settings on record: at 10–50 μM LXH-254.
Assay [9] concerns pErk levels in CIAR-293 cells. Kind of assay: Inhibitor titrations in CIAR-293 cells (pErk). The settings on record: A115 or DMSO 1 h, then LXH-254 3 h.
For another assay, the target named is ARaf:CRaf heterodimers (Homo sapiens, UniProt P04049+P10398). Put plainly: Co-immunoprecipitation of ARaf with CRaf in MiaPaCa-2 cells treated with LXH-254. The settings on record: Mia PaCa-2 cells.
Assay [10] deals with pErk levels in HCT-116 cells (single encorafenib-occupied Raf dimers). Put plainly: Encorafenib and LXH-254 cotreatment, pErk, HCT-116 cells. To be noted: encorafenib 1 h, then LXH-254 3 h.
For assay [11], the system named is pErk levels in Mia Paca-2 cells (single encorafenib-occupied Raf dimers). Put plainly: Encorafenib and LXH-254 cotreatment, pErk, Mia Paca-2 cells. The settings on record: encorafenib 1 h, then LXH-254 3 h.
Assay [12] concerns pErk levels in MDA-MB-453 cells (single encorafenib-occupied Raf dimers). Put plainly: Encorafenib and LXH-254 cotreatment, pErk, MDA-MB-453 cells. To be noted: encorafenib 1 h, then LXH-254 3 h.
For assay [13], the system named is pErk levels in MDA-MB-453 cells. Kind of assay: Bliss synergy analysis of cobimetinib/LXH-254 pErk titration data, MDA-MB-453 cells. The settings on record: combination with LXH-254, MDA-MB-453 cells, p < 0.05.
The mark [14] stands for this setting: Mia Paca-2 cells, partial (~85%) inhibitory dose 1 h, then LXH-254 3 h.

A word on the IC50: it is the concentration that inhibits the measured activity by half.

Chain of high-affinity Raf:Mek interactions (Q02750 whole entry): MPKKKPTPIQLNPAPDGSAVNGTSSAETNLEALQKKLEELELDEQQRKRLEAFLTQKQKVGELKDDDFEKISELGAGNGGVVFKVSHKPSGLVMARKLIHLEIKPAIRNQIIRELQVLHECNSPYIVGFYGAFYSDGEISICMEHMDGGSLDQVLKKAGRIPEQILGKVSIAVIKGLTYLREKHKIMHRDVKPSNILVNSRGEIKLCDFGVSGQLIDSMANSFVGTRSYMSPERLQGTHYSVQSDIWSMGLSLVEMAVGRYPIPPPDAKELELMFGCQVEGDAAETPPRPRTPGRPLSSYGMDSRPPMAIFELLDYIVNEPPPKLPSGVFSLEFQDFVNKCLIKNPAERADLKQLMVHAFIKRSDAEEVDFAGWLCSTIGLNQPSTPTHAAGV
Chain of ARaf:CRaf heterodimers (P10398 whole entry): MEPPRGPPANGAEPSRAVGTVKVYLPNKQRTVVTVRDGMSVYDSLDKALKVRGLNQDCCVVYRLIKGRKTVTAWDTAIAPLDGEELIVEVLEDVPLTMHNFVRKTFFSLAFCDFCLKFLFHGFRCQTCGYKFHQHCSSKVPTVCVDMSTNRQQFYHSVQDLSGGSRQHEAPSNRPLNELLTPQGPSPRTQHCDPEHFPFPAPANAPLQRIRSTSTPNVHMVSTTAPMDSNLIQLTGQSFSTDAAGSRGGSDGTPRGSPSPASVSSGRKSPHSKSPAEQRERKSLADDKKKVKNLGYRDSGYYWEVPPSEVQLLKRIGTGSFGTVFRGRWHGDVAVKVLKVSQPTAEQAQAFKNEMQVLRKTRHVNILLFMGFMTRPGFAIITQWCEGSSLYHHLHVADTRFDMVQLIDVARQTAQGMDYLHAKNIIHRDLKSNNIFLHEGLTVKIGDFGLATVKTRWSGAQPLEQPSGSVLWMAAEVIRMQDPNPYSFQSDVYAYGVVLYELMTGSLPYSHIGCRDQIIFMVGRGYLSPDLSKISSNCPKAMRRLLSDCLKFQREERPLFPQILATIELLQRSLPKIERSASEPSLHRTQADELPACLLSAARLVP
Chain of ARaf:CRaf heterodimers (P04049 whole entry): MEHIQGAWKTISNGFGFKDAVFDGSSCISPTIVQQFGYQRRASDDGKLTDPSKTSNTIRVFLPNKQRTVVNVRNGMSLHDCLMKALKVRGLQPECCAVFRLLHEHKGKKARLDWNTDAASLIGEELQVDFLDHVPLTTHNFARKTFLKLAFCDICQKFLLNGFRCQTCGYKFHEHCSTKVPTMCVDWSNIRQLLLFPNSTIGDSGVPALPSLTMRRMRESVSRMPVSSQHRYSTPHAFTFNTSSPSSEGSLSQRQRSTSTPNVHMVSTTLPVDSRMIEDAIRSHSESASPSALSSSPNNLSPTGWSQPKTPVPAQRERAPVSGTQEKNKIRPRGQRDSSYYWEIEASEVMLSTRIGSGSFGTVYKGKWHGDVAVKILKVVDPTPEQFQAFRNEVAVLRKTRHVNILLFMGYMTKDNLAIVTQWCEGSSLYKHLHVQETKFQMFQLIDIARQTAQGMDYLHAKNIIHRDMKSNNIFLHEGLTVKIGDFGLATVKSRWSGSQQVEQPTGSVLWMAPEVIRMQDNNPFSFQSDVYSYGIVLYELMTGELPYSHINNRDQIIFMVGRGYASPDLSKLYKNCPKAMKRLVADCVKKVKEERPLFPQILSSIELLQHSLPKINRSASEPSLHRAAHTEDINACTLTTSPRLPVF

As to `CN(C)CC#Cc1ccc(OCCCc2sc(N3CCc4cccc(C(=O)Nc5nc6ccccc6s5)c4C3)nc2C(=O)O)c(F)c1` [A115], the “pMek levels upon A115 treatment versus DMSO” value in assay [1] was “four-fold higher”.
Consider `CNS(=O)(=O)Nc1nccc(Cc2c(C)c3ccc(Oc4ncccn4)cc3oc2=O)c1F` [CH5126766], for which the “effect of Mek inhibitor pretreatment on LXH-254 pErk IC50 / inhibitory activity” value in [2] (setting [14]) is “potently antagonizes”. Besides, in assay [3], the “effect on pMek (Mek activation) relative to DMSO” value is “either reduced or minimally affected”. The “effect on high-affinity Raf:Mek interactions” value in assay [4] is listed as “promoted”.
For `Cc1ccc(NC(=O)c2ccnc(C(F)(F)F)c2)cc1-c1cc(OCCO)nc(N2CCOCC2)c1` [LXH-254], the “pErk IC50” value in assay [5] (4 h LXH-254 treatment) is on record as “double-digit nanomolar”; in assay [6] it was “double-digit nanomolar”; in [7] it was “micromolar”. Also, in assay [5] (time course, 32 nM LXH-254, n=1), the “treatment time at which maximal and stable inhibition of downstream signaling (pErk) was achieved” value worked out at 4 h. In [8], the “decrease of pErk levels” value is on record as more than 80%. Also, in assay [9], the “change of pErk IC50 in A115-treated versus DMSO-treated CIAR-293 cells” value is listed as “four-fold lower”. Also, the “LXH-254 concentrations at which ARaf was recruited into heterodimers with CRaf” value on ARaf:CRaf heterodimers was in the range of 10 to 50 µM. In addition, the “decrease in LXH-254 pErk IC50 after encorafenib pretreatment and washout” value was 2-3 fold in assay [10], ~ 30 fold in assay [11] and ~ 20 fold in [12]. The IC50 in assay [2] (Homo sapiens, MIA PaCa-2, read-out: LXH-254 pErk IC50, DMSO pretreatment) turned out to be 590 nM.
Regarding `O=C(c1ccc(F)c(F)c1Nc1ccc(I)cc1F)N1CC(O)([C@@H]2CCCCN2)C1` [cobimetinib], the “increase in LXH-254's potency (pErk IC50) after Mek inhibitor pretreatment” value in [2] (setting [14]) is reported as ~ 4 fold. For the same compound, in assay [13], the “average Bliss score” value was 8.72. Besides, the “effect on pMek (Mek activation) relative to DMSO” value in assay [3] is on record as “greatly enhanced”. Further, the “effect on high-affinity Raf:Mek interactions” value in assay [4] is given as “disrupted”.
